The values below come from publication doi:10.1101/2021.10.07.463234v2 (biorxiv, 2021).

Counter-ions that a name gives are not always drawn. Bridge positions count the residues as written; N and C are the ends. Square brackets hold non-standard residues; d marks the D form. Peptide text beside a SMILES is read from it. * marks the point of attachment. Ileψ(thiazoline)Cys = CC[C@H](C)[C@H](N)C1=N[C@H](C(=O)*)CS1; dOrn = NCCC[C@@H](N)C(=O)O

In the assay the target is SARS-CoV-2 Mac1 (Severe acute respiratory syndrome coronavirus 2, UniProt P0DTD1). The assay is described as follows: biochemical. The following applies: for inhibition at 100 µM: read-out: %inhibition; for %inhibition: 100 µM, inhibitor.

One may read the inhibition as the percentage by which the read-out fell short of the control. Take `CCCC(CCC)C(=O)O[C@H]1C[C@H]2CC[C@@H](C1)[N+]2(C)C` [Anisotropine Methylbromide]: the inhibition at 100 µM worked out at 5.8%.
Same read-out and setting: next, `Cc1cc(=O)n(-c2ccccc2)n1C` [Antipyrine]: 8.75%.
Same read-out and setting: next, `N#CC1(c2ccc(NC(=O)c3cccnc3NCc3ccncc3)cc2)CCCC1` [Apatinib?mesylate]: 0%.
Still for that read-out and setting: the value for `COc1ccc(-n2nc(C(N)=O)c3c2C(=O)N(c2ccc(N4CCCCC4=O)cc2)CC3)cc1` [Apixaban] was 0%.
Regarding `CCOc1cc([C@@H](CS(C)(=O)=O)N2C(=O)c3cccc(NC(C)=O)c3C2=O)ccc1OC` [Apremilast (CC-10004)], the inhibition at 100 µM stood at 0%.
Same read-out and setting: next, `C[C@@H](O[C@H]1OCCN(Cc2n[nH]c(=O)[nH]2)[C@H]1c1ccc(F)cc1)c1cc(C(F)(F)F)cc(C(F)(F)F)c1` [Aprepitant]: 10.1%; `COC(=O)C1=CCCN(C)C1` [Arecoline HBr]: 3.01%.
In general, %inhibition refers to the share of the control response that was lost under treatment. In the case of `COc1ccc(C[C@@H](C)NC[C@H](O)c2ccc(O)c(NC=O)c2)cc1` [Arformoterol Tartrate], the “%inhibition” value came out at 8.751%.
As for `CC1CNc2c(cccc2S(=O)(=O)N[C@@H](CCCNC(=N)N)C(=O)N2CC[C@@H](C)C[C@@H]2C(=O)O)C1` (stereo partly drawn) [Argatroban Monohydrate], the “%inhibition” value turned out to be 0%.
The same measure, in the same setting: next, `CC1CNc2c(cccc2S(=O)(=O)N[C@@H](CCCNC(=N)N)C(=O)N2CC[C@@H](C)C[C@@H]2C(=O)O)C1` (stereo partly drawn) [Argatroban]: 4.667%.
For the molecule `CO[C@H]1O[C@@H]2O[C@@]3(C)CC[C@H]4[C@H](C)CC[C@@H]([C@H]1C)[C@@]24OO3` [Artemether], the inhibition at 100 µM is 0%.
Same read-out and setting: the value for `C[C@@H]1CC[C@H]2[C@@H](C)C(=O)O[C@@H]3O[C@@]4(C)CC[C@@H]1[C@]32OO4` [Artemisinin] was 10.9%; that for `C[C@H]1[C@H](OC(=O)CCC(=O)O)O[C@@H]2O[C@@]3(C)CC[C@H]4[C@H](C)CC[C@@H]1[C@@]24OO3` [Artesunate] was 0%.
On the same count and under the same terms, next, `CCCNC(C)C(=O)Nc1c(C)csc1C(=O)OC` (stereo not drawn) [Articaine HCl]: 0%.
For `COC(=O)[C@H](Cc1ccccc1)NC(=O)[C@@H](N)CC(=O)O` [Aspartame] (H-Asp-Phe-OMe), the inhibition at 100 µM was found to be 0%.
For the molecule `CC(=O)Oc1ccccc1C(=O)O` [Aspirin], the “%inhibition” value stood at 26.28%.
On to `C=C[C@@H]1C[C@]1(NC(=O)[C@@H]1C[C@@H](Oc2ncc(OC)c3ccc(Cl)cc23)CN1C(=O)[C@@H](NC(=O)OC(C)(C)C)C(C)(C)C)C(=O)NS(=O)(=O)C1CC1` [Asunaprevir], for which the inhibition at 100 µM is 0%.
Same read-out and setting: the value for `COC(=O)N[C@H](C(=O)N[C@@H](Cc1ccccc1)[C@@H](O)CN(Cc1ccc(-c2ccccn2)cc1)NC(=O)[C@@H](NC(=O)OC)C(C)(C)C)C(C)(C)C` [Atazanavir Sulfate] was 0%.
The same measure, in the same setting: next, `CC(C)NCC(O)COc1ccc(CC(N)=O)cc1` (stereo not drawn) [Atenolol]: 0%; `CCC1(c2c[nH]cn2)Cc2ccccc2C1` [Atipamezole hydrochloride]: 0%; `CNCC[C@@H](Oc1ccccc1C)c1ccccc1` [Atomoxetine HCl]: 0%.
Still for that read-out and setting: the value for `CC(C)c1c(C(=O)Nc2ccccc2)c(-c2ccccc2)c(-c2ccc(F)cc2)n1CC[C@@H](O)C[C@@H](O)CC(=O)O` [Atorvastatin Calcium] was 0%; that for `O=C1C(O)=C([C@H]2CC[C@H](c3ccc(Cl)cc3)CC2)C(=O)c2ccccc21` [Atovaquone] was 23.4%.
Regarding `COc1ccc(C[C@@H]2c3cc(OC)c(OC)cc3CC[N@+]2(C)CCC(=O)OCCCCCOC(=O)CC[N@@+]2(C)CCc3cc(OC)c(OC)cc3[C@H]2Cc2ccc(OC)c(OC)c2)cc1OC` [Atracurium Besylate], the “%inhibition” value came out at 4.976%.
As for `NC(=O)[C@@H](CCC(F)(F)F)N(Cc1ccc(-c2ncon2)cc1F)S(=O)(=O)c1ccc(Cl)cc1` [Avagacestat (BMS-708163)], the inhibition at 100 µM turned out to be 0%.
Regarding `COc1ccc(CNc2nc(N3CCC[C@H]3CO)ncc2C(=O)NCc2ncccn2)cc1Cl` [Avanafil], the inhibition at 100 µM came out at 0%.
With `NC(=O)[C@@H]1CC[C@@H]2CN1C(=O)N2OS(=O)(=O)O` [Avibactam sodium], the inhibition at 100 µM worked out at 0%.
The same measure, in the same setting: next, `COc1ccc(C(=O)CC(=O)c2ccc(C(C)(C)C)cc2)cc1` [Avobenzone]: 26.5%; `CNC(=O)c1ccccc1Sc1ccc2c(/C=C/c3ccccn3)n[nH]c2c1` [Axitinib]: 59.3%; `Nc1ncn([C@@H]2O[C@H](CO)[C@@H](O)[C@H]2O)c(=O)n1` [Azacitidine]: 32.2%.
Same read-out and setting: the value for `OC(c1ccccc1)(c1ccccc1)C1CCNCC1` [Azacyclonol] was 0%.
Take `O=C(CCCN1CCN(c2ccccn2)CC1)c1ccc(F)cc1` [Azaperone]: the inhibition at 100 µM was determined as 22.5%.
On the same count and under the same terms, the value for `CN1C(=O)COc2c(C(=O)NC3CN4CCC3CC4)cc(Cl)cc21` (stereo not drawn) [Azasetron HCl] was 0%; that for `CN1CCC(=C2c3ccccc3CCc3cccnc32)CC1` [Azatadine dimaleate] was 0%; that for `Cn1cnc([N+](=O)[O-])c1Sc1ncnc2[nH]cnc12` [Azathioprine] was 18.9%.
The same measure, in the same setting: next, `O=C(O)CCCCCCCC(=O)O` [Azelaic acid]: 0%; `CN1CCCC(n2nc(Cc3ccc(Cl)cc3)c3ccccc3c2=O)CC1` (stereo not drawn) [Azelastine HCl]: 20.2%.
Same read-out and setting: next, `CC1=C(C(=O)OC(C)C)C(c2cccc([N+](=O)[O-])c2)C(C(=O)OC2CN(C(c3ccccc3)c3ccccc3)C2)=C(N)N1` (stereo not drawn) [Azelnidipine]: 12.9%; `CCOc1nc2cccc(C(=O)OCc3oc(=O)oc3C)c2n1Cc1ccc(-c2ccccc2-c2noc(=O)[nH]2)cc1` [Azilsartan Medoxomil]: 9.53%; `CCOc1nc2cccc(C(=O)O)c2n1Cc1ccc(-c2ccccc2-c2noc(=O)[nH]2)cc1` [Azilsartan]: 16.1%.
`CC[C@H]1OC(=O)[C@H](C)[C@@H](O[C@H]2C[C@@](C)(OC)[C@@H](O)[C@H](C)O2)[C@H](C)[C@@H](O[C@@H]2O[C@H](C)C[C@H](N(C)C)[C@H]2O)[C@](C)(O)C[C@@H](C)CN(C)[C@H](C)[C@@H](O)[C@]1(C)O` [Azithromycin Dihydrate]: the “%inhibition” value is 2.079%.
Regarding `CC[C@H]1OC(=O)[C@H](C)[C@@H](O[C@H]2C[C@@](C)(OC)[C@@H](O)[C@H](C)O2)[C@H](C)[C@@H](O[C@@H]2O[C@H](C)C[C@H](N(C)C)[C@H]2O)[C@](C)(O)C[C@@H](C)CN(C)[C@H](C)[C@@H](O)[C@]1(C)O` [Azithromycin], the “%inhibition” value was 5.483%.
Take `CC1(C)S[C@@H]2[C@H](NC(=O)[C@H](NC(=O)N3CCNC3=O)c3ccccc3)C(=O)N2[C@H]1C(=O)O` [Azlocillin sodium salt]: the inhibition at 100 µM turned out to be 0%.
For `C[C@H]1[C@H](NC(=O)/C(=N\OC(C)(C)C(=O)O)c2csc(N)n2)C(=O)N1S(=O)(=O)O` [Aztreonam], the inhibition at 100 µM was 11.7%.
In the case of `CCc1cc(/C(C)=N/OCc2ccc(C3CCCCC3)c(C(F)(F)F)c2)ccc1CN1CC(C(=O)O)C1` [BAF312 (Siponimod)], the inhibition at 100 µM stood at 26.1%.
The same measure, in the same setting: the value for `CC[C@H](C)[C@H](N)C1=N[C@H](C(=O)N[C@@H](CC(C)C)C(=O)N[C@H](CCC(=O)O)C(=O)N[C@H](C(=O)N[C@H]2CCCCNC(=O)[C@H](CC(N)=O)NC(=O)[C@@H](CC(=O)O)NC(=O)[C@H](Cc3cnc[nH]3)NC(=O)[C@@H](Cc3ccccc3)NC(=O)[C@H]([C@@H](C)CC)NC(=O)[C@@H](CCCN)NC2=O)[C@@H](C)CC)CS1` [Bacitracin] ({Ileψ(thiazoline)Cys}-L[dE]IK[dOrn]I[dF]H[dD]N; lactam 4-C) was 0%; that for `Cc1ccc(NC(=O)c2ccc(CN3CC[C@H](N(C)C)C3)c(C(F)(F)F)c2)cc1Nc1nccc(-c2cncnc2)n1` [Bafetinib (INNO-406)] was 0%; that for `CNC1CCCN(c2c(F)cc3c(=O)c(C(=O)O)cn(C4CC4)c3c2OC)C1` (stereo not drawn) [Balofloxacin] was 0%.
Still for that read-out and setting: the value for `O=C(O)CCNC(=O)c1ccc(/N=N/c2ccc(O)c(C(=O)O)c2)cc1` [Balsalazide disodium] was 0%; that for `COC(=O)[C@]12CCC(C)(C)C[C@H]1[C@H]1C(=O)C=C3[C@@]4(C)C=C(C#N)C(=O)C(C)(C)[C@@H]4CC[C@@]3(C)[C@]1(C)CC2` [Bardoxolone Methyl] was 16.4%.
Consider `CCS(=O)(=O)N1CC(CC#N)(n2cc(-c3ncnc4[nH]ccc34)cn2)C1` [Baricitinib (LY3009104, INCB028050)], for which the inhibition at 100 µM was determined as 28.1%.
On to `CNC(=O)[C@H](Cc1ccccc1)NC(=O)[C@H](CC(C)C)[C@H](CSc1cccs1)C(=O)NO` [Batimastat (BB-94)], for which the inhibition at 100 µM was found to be 0%.
In the case of `Cc1c(-c2ccc(O)cc2)n(Cc2ccc(OCCN3CCCCCC3)cc2)c2ccc(O)cc12` [Bazedoxifene Acetate], the “%inhibition” value was determined as 3.518%.
As for `Cc1c(-c2ccc(O)cc2)n(Cc2ccc(OCCN3CCCCCC3)cc2)c2ccc(O)cc12` [Bazedoxifene HCl], the “%inhibition” value worked out at 0%.
Turning to `CCC(=O)OCC(=O)[C@@]1(OC(=O)CC)[C@@H](C)C[C@H]2[C@@H]3CCC4=CC(=O)C=C[C@]4(C)[C@@]3(Cl)[C@@H](O)C[C@@]21C` [Beclomethasone dipropionate], the inhibition at 100 µM was 0%.
With `COc1nc2ccc(Br)cc2cc1[C@@H](c1ccccc1)[C@@](O)(CCN(C)C)c1cccc2ccccc12` [Bedaquiline fumarate], the “%inhibition” value is 0%.
As for `COc1nc2ccc(Br)cc2cc1[C@@H](c1ccccc1)[C@@](O)(CCN(C)C)c1cccc2ccccc12` [Bedaquiline], the “%inhibition” value was found to be 4.292%.
Turning to `O=C(/C=C/c1cccc(S(=O)(=O)Nc2ccccc2)c1)NO` [Belinostat (PXD101)], the inhibition at 100 µM was 20%.
Still for that read-out and setting: the value for `CCC1(C)CC(=O)NC(=O)C1` [Bemegride] was 0%.
Still for that read-out and setting: next, `CCN(CC)CCOC(=O)C(O)(c1ccccc1)c1ccccc1` [Benactyzine hydrochloride]: 0%.
